The assay concerns the target T1, human histamine H3 receptor (Homo sapiens, UniProt Q9Y5N1).
T1 construct: expressed in transfected cells; host or cells: HEK293 and CHO-K1
Kind of assay: Test for Inhibition of Bonding of Histamine Analog. The note with it: for IC50: membrane specimen from histamine H3 receptor-expressed cells, [3H]N-α-methylhistamine, 25° C., 2 hours, read-out: 50% inhibition concentration (IC50 value) of the test compound to a specific N-alpha-methylhistamine bond; for inhibition of the bond of N-alpha-methylhistamine (histamine analog) to a histamine H3 receptor: summary in words of the IC50 results. The class given is binding. From the text: A cDNA sequence coding for human histamine H3 receptor [refer to WO 00/39164] was cloned to an expression vector pCR2.1, pEF1× (manufactured by Invitrogen) and pCI-neo (manufactured by Promega). The resulting expression vector was transfected to host cells HEK293 and CHO-K1 (American Type Culture Collection) by a cationic lipid method [refer to Proceedings of the National Academy of Sciences, the United States of America, volume 84, page 7413 (1987)] to give histamine H3 receptor-expressed cells.
A membrane specimen prepared from the cells where histamine H3 receptor was expressed was incubated at 25° C. for 2 hours in an assay buffer (50 mM Tris buffer, pH 7.4) together with a test compound (the compound of Example 1) and 20,000 cpm of [3H]N-α-methylhistamine (manufactured by NEN) and then filtered using a glass filter GF/C. After washing with a 50 mM Tris buffer of pH 7.4, radiation activity on the glass filter was determined. Non-specific bond was measured in the presence of a 10 μM thioperamide (manufactured by Sigam) to determine a 50% inhibition concentration (IC50 value) of the test compound to a specific N-alpha-methylhistamine bond [refer to Molecular Pharmacology, volume 55, page 1101 (1999)].

T1 sequence (Q9Y5N1 whole entry): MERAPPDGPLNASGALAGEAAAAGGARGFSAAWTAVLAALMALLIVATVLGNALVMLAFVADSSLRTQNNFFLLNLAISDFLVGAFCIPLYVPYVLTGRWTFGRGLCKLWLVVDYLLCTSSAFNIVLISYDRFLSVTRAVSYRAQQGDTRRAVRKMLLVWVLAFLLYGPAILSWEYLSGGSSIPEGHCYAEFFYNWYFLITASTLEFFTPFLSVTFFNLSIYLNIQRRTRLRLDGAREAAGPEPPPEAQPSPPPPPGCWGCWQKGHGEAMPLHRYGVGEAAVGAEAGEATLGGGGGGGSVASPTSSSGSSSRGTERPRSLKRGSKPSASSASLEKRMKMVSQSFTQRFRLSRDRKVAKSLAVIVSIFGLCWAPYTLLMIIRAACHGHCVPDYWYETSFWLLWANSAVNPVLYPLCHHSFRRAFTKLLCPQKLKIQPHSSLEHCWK

Turning to `CN(CCN1CCCCC1)C(=O)[C@H]1CC[C@@]2(CC1)OC(=O)c1cc(-c3ccccn3)ccc12` [Example 58, trans-5′-(Pyridin-2-yl)-3′-oxo-N-methyl-N-(2-piperidin-1-ylethyl)-spiro[cyclohexane-1,1′-(3′H)-isobenzofuran]-4-carboxamide], the IC50 worked out at 0.08 nM and the “inhibition of the bond of N-alpha-methylhistamine (histamine analog) to a histamine H3 receptor” value is listed as “strongly inhibited”.
Turning to `CN(CCN1CCCCC1)C(=O)[C@H]1CC[C@@]2(CC1)OC(=O)c1cc(F)ccc12.Cl` [Example 10, trans-5′-fluoro-3′-oxo-N-methyl-N-(2-piperidin-1-ylethyl)-spiro[cyclohexane-1,1′-(3′H)-isobenzofuran]-4-carboxamide hydrochloride], the IC50 came out at 4 nM and the “inhibition of the bond of N-alpha-methylhistamine (histamine analog) to a histamine H3 receptor” value was “strongly inhibited”.
As to `CN(CCN1CCCCC1)C(=O)[C@H]1CC[C@@]2(CC1)OC(=O)c1cc(Oc3ccccn3)ccc12` [Example 68, trans-5′-(Pyridin-2-yloxy)-3′-oxo-N-methyl-N-(2-piperidin-1-ylethyl)-spiro[cyclohexane-1,1′-(3′H)-iso-benzofuran]-4-carboxamide], the IC50 came to 0.67 nM and the “inhibition of the bond of N-alpha-methylhistamine (histamine analog) to a histamine H3 receptor” value is given as “strongly inhibited”.
